Data from patent US20070190129A1, “Sustained release dosage forms of ziprasidone” (Pfizer Inc., priority 2003, published 2007).
Converted amounts (≈) assume the structure as drawn. Where a name gives a salt, the structure may show the parent alone. Read-outs that look alike come from different tables or passages of the source. Blank lines part the entries; values can stand above or below the compound they belong to.

Tests used:
[1] = In vitro membrane permeation test; type: physicochemical; settings: for Concentration (permeate solution): feed MFD solution, 100 μgA/mL if all dissolved, 37° C.
Protocol: The ziprasidone coated crystals were evaluated in vitro using a membrane permeation test. An Accurel® PP 1E microporous polypropylene membrane was obtained from Membrana GmbH (Wuppertal, Germany). The membrane was washed in isopropyl alcohol and rinsed in methanol in a sonicating bath for 1 minute at ambient temperature, and then allowed to air dry at ambient temperature. The feed side of the membrane was then plasma-treated to render it hydrophilic by placing a sample of the membrane in a plasma chamber. The atmosphere of the plasma chamber was saturated with water vapor at a pressure of 550 mtorr. A plasma was then generated using radio frequency (RF) power inductively coupled into the chamber via annular electrodes at a power setting of 50 watts for 45 seconds. The contact angle of a drop of water placed on the surface of the plasma-treated membrane was about 40°. The contact angle of a drop of water placed on the permeate side of the same membrane was greater than about 110°.
A permeate reservoir was formed by gluing a sample of the plasma-treated membrane to a glass tube having an inside diameter of about 1 inch (2.54 cm) using an epoxy-based glue (LOCTITE® E-30CL HYSOL®) from Henkel Loctite Corp, Rocky Hill, Conn.). The feed-side of the membrane was oriented so that it was on the outside of the permeate reservoir, while the permeate-side of the membrane was oriented so that it was on the inside of the reservoir. The effective membrane area of the membrane on the permeate reservoir was about 4.9 cm^2. The permeate reservoir was placed into a glass feed reservoir. The feed reservoir was equipped with a magnetic stir bar and the reservoir was placed on a stir plate and the stir rate was set to 100 rpm during the test. The apparatus was placed into a chamber maintained at 37° C. for the duration of the test. Further details of the test apparatus and protocols are presented in co-pending U.S. patent application Ser. No. 60/557,897, entitled “Method and Device for Evaluation of Pharmaceutical Compositions,” filed Mar. 30, 2004 (attorney Docket No. PC25968), incorporated herein by reference.
To form the feed solution, a 1.39 mg sample of the coated crystals was weighed into the feed reservoir. To this was added 5 mL of MFD solution previously described, consisting of PBS solution containing 7.3 mM sodium taurocholic acid and 1.4 mM of 1-palmitoyl-2-oleyl-sn-glycero-3-phospocholine (0.5% NaTC/POPC). The concentration of ziprasidone in the feed solution, would have been 100 μgA/mL, if all of the ziprasidone had dissolved. The feed solution was mixed using a vortex mixer for 1 minute. Before the membrane contacted the feed solution, 5 mL of 60 wt% decenol in decane was placed into the permeate reservoir. Time zero in the test was the membrane was placed in contact with the feed solution. A […] aliquot of the permeate solution was collected at the times indicated. Samples were then diluted in […] IPA and analyzed using HPLC.
As a control, the membrane test was repeated using a 0.5-mg sample of crystalline ziprasidone alone, so that the concentration of drug would have been 100 μg/mL, if all of the drug had dissolved.
The maximum flux of drug across the membrane (in units of mgA/cm^2-min) was determined by performing a least-squares fit to the data in Table 3 from 0 to 60 minutes to obtain the slope, multiplying the slope by the permeate volume (5 mL), and dividing by the membrane area (4.9 cm^2).

physchem = assay: physchem
Description: To achieve efficacious blood levels over long periods of time, the sustained release dosage form should release ziprasidone to the gastrointestinal tract in a manner that allows ziprasidone to be absorbed for a sustained length of time. However, formulating ziprasidone into a sustained release dosage form presents a number of problems. […] Such low solubility at intestinal pH inhibits absorption of ziprasidone in the intestines.
In one embodiment, the solubility-improved form of ziprasidone is a high solubility salt form. It is known that some low-solubility drugs may be formulated in highly soluble salt forms that provide temporary improvements in the concentration of the drug in a use environment relative to another salt form of the drug.

[2] = Microcentrifuge dissolution test in MFD solution; type: physicochemical; parameters: AUC: concentration or dose not given beside the values; settings: for AUC / Dissolved Ziprasidone Concentration: MFD solution pH 6.5, 37° C.; for Dissolved Ziprasidone Concentration: 200 μgA/mL if all dissolved
Protocol: The tests were run in duplicate. The tubes were placed in a 37° C. temperature-controlled chamber, and 1.8 mL MFD solution at pH 6.5 and 290 mOsm/kg was added to each respective tube. The samples were quickly mixed using a vortex mixer for about 60 seconds. The samples were centrifuged at 13,000 G at 37° C. for 1 minute prior to collecting a sample. The resulting supernatant solution was then sampled and diluted 1:5 (by volume) with methanol. Samples were analyzed by high-performance liquid chromatography (HPLC) at a UV absorbance of 315 nm using a Zorbax RxC8 Reliance column and a mobile phase consisting of 55% (50 mM potassium dihydrogen phosphate, pH 6.5)/45% acetonitrile. Drug concentration was calculated by comparing UV absorbance of samples to the absorbance of drug standards. The contents of each tube were mixed on the vortex mixer and allowed to stand undisturbed at 37° C. until the next sample was taken. Samples were collected at 4, 10, 20, 40, 90, and 1200 minutes following administration to the MFD solution.
A similar test was performed with the crystalline ziprasidone free base as a control, and a sufficient amount of material was added so that the concentration of compound would have been 200 μgA/mL, if all of the ziprasidone had dissolved.
The concentration of ziprasidone obtained in these tests were used to determine the maximum dissolved concentration of ziprasidone (“MDC90”) and the area under the concentration-versus time (“AUC90”) during the initial ninety minutes.

D2 receptor = D2 receptor (Homo sapiens, UniProt P14416); settings: cited from earlier work
[3] = with food versus without; cited from earlier work
[4] = at the pH of the saturated solution
[5] = initial ninety minutes, MFD solution pH 6.5

D2 receptor, sequence (P14416 whole entry): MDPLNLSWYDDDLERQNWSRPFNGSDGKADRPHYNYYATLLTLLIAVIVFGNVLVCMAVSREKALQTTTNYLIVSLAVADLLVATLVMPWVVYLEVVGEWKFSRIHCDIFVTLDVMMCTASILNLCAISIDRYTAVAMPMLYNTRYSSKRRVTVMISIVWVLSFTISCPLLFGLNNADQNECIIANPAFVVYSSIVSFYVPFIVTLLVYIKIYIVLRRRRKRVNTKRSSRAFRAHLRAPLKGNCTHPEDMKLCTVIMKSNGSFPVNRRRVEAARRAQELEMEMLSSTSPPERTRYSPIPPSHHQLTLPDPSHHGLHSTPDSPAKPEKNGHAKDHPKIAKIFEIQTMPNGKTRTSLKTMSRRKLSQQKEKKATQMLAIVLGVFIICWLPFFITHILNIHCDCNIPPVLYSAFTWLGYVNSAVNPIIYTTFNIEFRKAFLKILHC

Compound: O=C(O)c1ccccc1O [Salicylate]
- Aqueous Solubility (physchem): 58 µg/mL
- pH of Saturated Solution (physchem): 5.5

Compound: Fumarate
- Aqueous Solubility (physchem): 2000 µg/mL
- pH of Saturated Solution (physchem): 2.5

Compound: Maleate
- Aqueous Solubility (physchem): 118 µg/mL
- pH of Saturated Solution (physchem): 4.3

Compound: Phosphate
- pH of Saturated Solution (physchem): 2.3
- Aqueous Solubility (physchem; [4]): 37 µg/mL

Further lines, with some results ahead:

- Concentration (permeate solution) ([1]; 0 min): 0.0 μgA/mL
- Concentration (permeate solution) ([1]; 20 min): 5.2 μgA/mL
- Concentration (permeate solution) ([1]; 40 min): 8.1 μgA/mL
- Concentration (permeate solution) ([1]; 60 min): 10.0 μgA/mL
- Concentration (permeate solution) ([1]; 90 min): 11.4 μgA/mL
- Concentration (permeate solution) ([1]; 120 min): 12.9 μgA/mL
- Concentration (permeate solution) ([1]; 180 min): 18.1 μgA/mL
- Concentration (permeate solution) ([1]; 245 min): 20.9 μgA/mL
- Concentration (permeate solution) ([1]; 360 min): 22.6 μgA/mL
- Maximum flux of Ziprasidone ([1]; least-squares fit 0 to 60 minutes, permeate volume 5 mL, membrane area 4.9 cm^2): 0.16 µgA/cm²·min
Compound: Cl.O=C1Cc2cc(CCN3CCN(c4nsc5ccccc45)CC3)c(Cl)cc2N1 [Crystalline Ziprasidone HCl]

- AUC90 (area under the concentration-versus time) ([2]; initial ninety minutes, MFD solution pH 6.5, hydrochloride monohydrate): 1,700 min*μgA/mL
- MDC90 (maximum dissolved concentration of ziprasidone) ([2]; pH 6.5): 22 μgA/mL
Compound: O=C1Cc2cc(CCN3CCN(c4nsc5ccccc45)CC3)c(Cl)cc2N1 [Ziprasidone hydrochloride monohydrate, ziprasidone hydrochloride monohydrate]

- pH of Saturated Solution (physchem): 9.8
- solubility (physchem; pH 6.5, aqueous buffer): ~0.2 µg/mL (≈ 0.484 µM)
- solubility (physchem; pH 9.8, water): 0.2 µg/mL (≈ 0.484 µM)
- AUC90 (area under the concentration-versus time) ([2]; initial ninety minutes, MFD solution pH 6.5, listed as Ziprasidone free base): 120 min*μgA/mL
- MDC90 (maximum dissolved concentration of ziprasidone) ([2]; pH 6.5): 2 μgA/mL
Compound: O=C1Cc2cc(CCN3CCN(c4nsc5ccccc45)CC3)c(Cl)cc2N1 [ziprasidone, 5-[2-[4-(1,2-benzisothiazol-3-yl)-1-piperazinyl]ethyl]-6-chloro-1,2-dihydro-2H-indol-2-one]
- D2 occupancy (D2 receptor; blood ziprasidone concentration 16 ng/ml): approximately 50%
- D2 occupancy (D2 receptor; blood ziprasidone concentration 30 ng/ml): approximately 65%
- D2 occupancy (D2 receptor; blood ziprasidone concentration 50 ng/ml): approximately 75%
- absorption in the presence of food [3]: increased up to two-fold

- pH of Saturated Solution (physchem): 6.0
- Aqueous Solubility (physchem; [4]): 64 µg/mL
Compound: Tosylate

- AUC ([2]; 0 min): 0 min-μgA/mL
- Dissolved Ziprasidone Concentration ([2]; 0 min): 0 μgA/mL
- AUC ([2]; 4 min): 110 min-μgA/mL
- Dissolved Ziprasidone Concentration ([2]; 4 min): 55 μgA/mL
- AUC ([2]; 10 min): 380 min-μgA/mL
- Dissolved Ziprasidone Concentration ([2]; 10 min): 33 μgA/mL
- AUC ([2]; 20 min): 640 min-μgA/mL
- Dissolved Ziprasidone Concentration ([2]; 20 min): 20 μgA/mL
- AUC ([2]; 40 min): 970 min-μgA/mL
- Dissolved Ziprasidone Concentration ([2]; 40 min): 13 μgA/mL
- AUC ([2]; 90 min): 1,600 min-μgA/mL
- Dissolved Ziprasidone Concentration ([2]; 90 min): 11 μgA/mL
- AUC ([2]; 1200 min): 11,200 min-μgA/mL
- Dissolved Ziprasidone Concentration ([2]; 1200 min): 6 μgA/mL
- AUC90 relative to that provided by the free base ([2]; MFD solution pH 6.5): 13 fold
- MDC90 relative to that provided by the free base ([2]; MFD solution pH 6.5): 27 fold
- AUC90 (area under the concentration-versus time) [2, 5]: 1,600 min*μgA/mL
- MDC90 (maximum dissolved concentration of ziprasidone) [2, 5]: 55 μgA/mL
Compound: ziprasidone mesylate trihydrate
